# Results: article PMC5503199 (Molecular microbiology, 2009)
# “And” between values parts separate entries of the source, which are not always exact repeats. Equal entries are not always repeated. Where two headings read alike, the source gives them in different places.
# Columns and labels:
# [1] = tested on: E. coli strains MKH13 and Acella; assay: Total uptake by E. coli strains carrying empty vector; format: cell-based, Escherichia coli
# [2] = molecular target: CbcX with CbcWV (Pseudomonas aeruginosa, UniProt Q9HTI6)
# [3] = tested on: Cbc core transporter CbcWV; format: cell-based, Pseudomonas aeruginosa; details: MKH13, pNcbcWV, SBP None, substrate 10 μM, single replication
# [4] = tested on: CbcX and CaiX with CbcWV; format: cell-based, Pseudomonas aeruginosa; details: MKH13, pNcbcXWV, pT-PA5388, SBPs CbcX/CaiX, competitor 1 mM
# [5] = tested on: S. meliloti ChoXWV transporter; format: cell-based, Sinorhizobium meliloti
# [6] = molecular target: T1, BetX with CbcWV (Pseudomonas aeruginosa, UniProt Q9HZ04); assay: Competitive uptake, MKH13 expressing cbcWV and betX; format: cell-based; details: pNcbcWV, pT-PA3236, SBP BetX, [^14C]betaine 10 μM, competitor 1 mM
# T1 sequence (Q9HZ04 26-285): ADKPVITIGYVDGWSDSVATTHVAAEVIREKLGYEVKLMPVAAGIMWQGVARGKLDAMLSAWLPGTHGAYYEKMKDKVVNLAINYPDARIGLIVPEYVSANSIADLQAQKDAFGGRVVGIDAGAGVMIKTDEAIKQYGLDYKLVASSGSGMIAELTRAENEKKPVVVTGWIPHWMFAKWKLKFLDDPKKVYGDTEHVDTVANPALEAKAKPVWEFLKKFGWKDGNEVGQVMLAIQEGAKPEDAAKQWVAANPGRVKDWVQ
# T1 sequence (Q9HTI7 1-279 partner): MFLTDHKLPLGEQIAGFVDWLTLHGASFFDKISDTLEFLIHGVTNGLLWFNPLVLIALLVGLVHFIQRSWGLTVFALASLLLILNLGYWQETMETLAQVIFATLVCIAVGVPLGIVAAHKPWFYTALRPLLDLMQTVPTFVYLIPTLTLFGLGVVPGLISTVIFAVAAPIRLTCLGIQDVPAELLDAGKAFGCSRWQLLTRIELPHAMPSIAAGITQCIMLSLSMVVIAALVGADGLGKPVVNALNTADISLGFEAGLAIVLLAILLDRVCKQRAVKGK
# T1 sequence (Q9HTI8 1-392 partner): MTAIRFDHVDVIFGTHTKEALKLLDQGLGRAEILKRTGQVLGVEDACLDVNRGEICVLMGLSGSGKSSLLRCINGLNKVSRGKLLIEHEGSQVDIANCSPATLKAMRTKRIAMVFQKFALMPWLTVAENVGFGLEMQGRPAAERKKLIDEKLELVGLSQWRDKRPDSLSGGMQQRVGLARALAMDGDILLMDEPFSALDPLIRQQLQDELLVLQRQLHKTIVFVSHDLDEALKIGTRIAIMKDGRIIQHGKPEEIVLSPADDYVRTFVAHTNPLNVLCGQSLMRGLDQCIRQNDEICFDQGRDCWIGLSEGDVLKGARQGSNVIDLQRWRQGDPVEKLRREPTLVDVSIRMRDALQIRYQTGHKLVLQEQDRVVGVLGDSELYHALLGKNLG
# [7] = tested on: P. syringae pv. tomato DC3000; format: cell-based, Pseudomonas syringae pv. tomato; details: for uptake rate: DC3000 grown without choline and betaine as inducers, substrate 10 μM
# [8] = molecular target: T1, BetX with CbcWV; assay: Uptake kinetics, MKH13; details: MKH13, pNcbcWV + pTPA3236, SBP BetX, mean (SE), n = 4
# [9] = tested on: S. meliloti Cho transporter ChoXWV; format: cell-based, Sinorhizobium meliloti; details: MKH13; pNchoXWV, Plasmid 2 None; SBP ChoX; substrate 10 μM; single replication
# [10] = molecular target: T2, ChoXWV (Sinorhizobium meliloti, UniProt Q92N37); assay: Uptake kinetics, MKH13; details: MKH13, pNchoXWV; SBP ChoX; mean (SE), n = 4
# T2 sequence (Q92N37 28-318): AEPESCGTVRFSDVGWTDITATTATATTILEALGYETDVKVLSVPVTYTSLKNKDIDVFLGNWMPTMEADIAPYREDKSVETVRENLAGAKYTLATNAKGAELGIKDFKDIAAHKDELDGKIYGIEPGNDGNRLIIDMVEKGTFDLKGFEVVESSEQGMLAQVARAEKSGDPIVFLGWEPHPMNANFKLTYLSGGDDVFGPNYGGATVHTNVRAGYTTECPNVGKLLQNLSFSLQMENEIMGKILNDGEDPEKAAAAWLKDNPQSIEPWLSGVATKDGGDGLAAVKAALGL
# T2 sequence (Q92N36 1-281 partner): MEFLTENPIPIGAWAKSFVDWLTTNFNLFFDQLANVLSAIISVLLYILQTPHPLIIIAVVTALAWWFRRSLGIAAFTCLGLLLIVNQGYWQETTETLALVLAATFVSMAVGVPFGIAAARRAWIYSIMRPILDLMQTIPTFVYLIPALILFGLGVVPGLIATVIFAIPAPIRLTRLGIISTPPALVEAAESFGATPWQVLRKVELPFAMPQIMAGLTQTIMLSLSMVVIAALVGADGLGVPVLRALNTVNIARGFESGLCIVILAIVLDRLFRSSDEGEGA
# T2 sequence (Q92N35 1-349 partner): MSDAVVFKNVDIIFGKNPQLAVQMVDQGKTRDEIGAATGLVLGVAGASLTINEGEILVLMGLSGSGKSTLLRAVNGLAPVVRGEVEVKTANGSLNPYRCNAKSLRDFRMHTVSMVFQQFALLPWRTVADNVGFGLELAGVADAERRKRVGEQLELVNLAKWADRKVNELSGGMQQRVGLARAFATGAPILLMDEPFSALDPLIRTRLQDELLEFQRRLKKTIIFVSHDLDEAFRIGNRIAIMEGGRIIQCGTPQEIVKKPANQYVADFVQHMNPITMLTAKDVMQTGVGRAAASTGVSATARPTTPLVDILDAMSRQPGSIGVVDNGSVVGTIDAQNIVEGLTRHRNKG
# [11] = molecular target: CbcWV-CaiX (Pseudomonas aeruginosa, UniProt Q9HTH6); assay: Uptake kinetics, PA5378::tn; details: pNcbcWV, SBP CaiXPAO1, mean (SE), n = 4
# [12] = Acella, pET15b, 1 mM IPTG, substrate 1 mM, single colony
# [13] = MKH13, pME6041, radiolabelled substrate 1 mM, mean (SE), n = 10
# [14] = pNchoXW, host BT0028Ko, substrate 10 μM, mean (SE), n = 2
# [15] = pNchoXW, host BT3758Ko, substrate 10 μM, mean (SE), n = 3
# [16] = pNchoXWV, host BT2916Ko, substrate 10 μM, single replication
SMILES,"Total uptake [1, 12]","Total uptake [1, 13]",Total uptake ([3]; Plasmid 2 None),Total uptake ([3]; pTOK2T),% inhibition of uptake of substrate by unlabelled competitor ([4]; [^14C]betaine 10 μM) [%],% inhibition of uptake of substrate by unlabelled competitor ([4]; [^14C]choline 10 μM) [%],"Total uptake [5, 14]","Total uptake [5, 15]","Total uptake [5, 16]",% inhibition of uptake of substrate by unlabelled competitor [6] [%],uptake rate [7],Total uptake [9],also measured
"C[N+](C)(C)CC(=O)O [Betaine, glycine betaine]",8.2 nmol (mg protein)^−1,0.5 (0.5) nmol (mg protein)^−1,0 nmol (mg protein)^−1,0 nmol (mg protein)^−1,88,−1,2.8 (0.3) nmol (mg protein)^−1,3.0 (0.64) nmol (mg protein)^−1,3.0 nmol (mg protein)^−1,94,0.6 nmol min^−1 (mg protein)^−1,2.7 nmol (mg protein)^−1,"fold lower affinity of CbcX for betaine than choline [2]: approximately 10 fold; maximal rate of uptake (Vmax) ([2]; MKH13, pNcbcXWV, SBP CbcX, mean (SE), n = 4): 11.6 (0.6) nmol min^−1 (mg protein)^−1; maximal rate of uptake (Vmax) ([2]; MKH13, pNcbcXWV, SBP CbcX, mean (SE), n = 4, listed as betaine): 11.6 nmol min^−1 (mg protein)^−1; increase of initial uptake rate after growth with inducer ([7]; DC3000 grown with 10 mM choline or betaine as inducers): three- to fourfold; maximal rate of uptake (Vmax) [8]: 4.8 (0.18) nmol min^−1 (mg protein)^−1; maximal rate of uptake (Vmax) ([8]; listed as betaine): 4.8 nmol min^−1 (mg protein)^−1"
"C[N+](C)(C)CCO [Choline, choline]",0 nmol (mg protein)^−1,0.2 (0.1) nmol (mg protein)^−1,0 nmol (mg protein)^−1,0 nmol (mg protein)^−1,99,96,7.8 (0.07) nmol (mg protein)^−1,8.6 (1.28) nmol (mg protein)^−1,6.5 nmol (mg protein)^−1,−8,1.8 nmol min^−1 (mg protein)^−1,4.7 nmol (mg protein)^−1,"maximal rate of uptake (Vmax) [10]: 1.2 (0.05) nmol min^−1 (mg protein)^−1; maximal rate of uptake (Vmax) [2]: 34.6 nmol min^−1 (mg protein)^−1 and 34.6 (2.2) nmol min^−1 (mg protein)^−1; Total uptake ([5]; pNchoXW, host BT0028Ko, substrate 1 mM, mean (SE), n = 2): 8.5 (1.4) nmol (mg protein)^−1; Total uptake ([5]; pNchoXW, host BT3758Ko, substrate 1 mM, mean (SE), n = 3): 7.4 (0.8) nmol (mg protein)^−1; Total uptake ([5]; pNchoXWV, host BT2916Ko, substrate 1 mM, single replication): 6.1 nmol (mg protein)^−1; increase of initial uptake rate after growth with inducer [7]: three- to fourfold"
"C[N+](C)(C)C[C@H](O)CC(=O)[O-] [Carnitine, L-carnitine]",0 nmol (mg protein)^−1,0.5 (0.3) nmol (mg protein)^−1,0 nmol (mg protein)^−1,0 nmol (mg protein)^−1,10,−2,1.2 (0.1) nmol (mg protein)^−1,1.8 (0.4) nmol (mg protein)^−1,0.1 nmol (mg protein)^−1,3,–,0 nmol (mg protein)^−1,maximal rate of uptake (Vmax) [11]: 3.8 (0.33) nmol min^−1 (mg protein)^−1
